One assay relates to HEK293. The assay can be described thus: cells. In kind it is functional, Homo sapiens, ATCC CRL1573. To be noted: Homo sapiens, ATCC CRL1573, HEK293; ASSAY_TEST Inhibition of Cell Viability; detection method Resazurin; Fluorescence (ex560/em590); MEDIA DMEM with 10% FBS; plate type 384well; TC; CORNING #3712; time 18 hr; read-out: CC50. (The colour change of resazurin is a common sign of viable cells or microbes.)

In assay [1] the test system is Pseudomonas aeruginosa. The assay can be described thus: Antibacterial activity against Pseudomonas aeruginosa PAO397 [PAO1 d(mexAB-oprM) d(mexCD-oprJ) d(mexEF-oprN) d(mexJKL) d(mexXY) d(opmH)] (CO-ADD:GN_211); MIC in CAMBH media using NBS plates, by OD(600). In kind it is functional. The conditions noted are these: ASSAY_TEST Inhibition of Bacterial Growth, detection method Absorption (OD600), MEDIA CAMHB, plate type 384well, CORNING #3640, time 18 hr.

The next assay concerns Staphylococcus aureus. The assay can be described thus: microbe, parasite or virus in culture. To be noted: ATCC 43300, 18 h, ASSAY_TEST Inhibition of Bacterial Growth, detection method Absorption (OD600), MEDIA CAMHB, plate type 384well, NBS, CORNING #3640.
In the next assay the test system is Escherichia coli. The assay can be described thus: microbe, parasite or virus in culture. The conditions noted are these: ATCC 25922, 18 h, ASSAY_TEST Inhibition of Bacterial Growth, detection method Absorption (OD600), MEDIA CAMHB, plate type 384well, NBS, CORNING #3640.
In the next assay the test system is Klebsiella pneumoniae. The assay can be described thus: microbe, parasite or virus in culture. The conditions noted are these: ATCC 700603, 18 h, ASSAY_TEST Inhibition of Bacterial Growth, detection method Absorption (OD600), MEDIA CAMHB, plate type 384well, NBS, CORNING #3640.
Assay [2] has as its system Pseudomonas aeruginosa. The assay can be described thus: microbe, parasite or virus in culture. To be noted: ATCC 27853, 18 h, ASSAY_TEST Inhibition of Bacterial Growth, detection method Absorption (OD600), MEDIA CAMHB, plate type 384well, NBS, CORNING #3640.
Description: Antibacterial activity against Pseudomonas aeruginosa ATCC 27853 (CO-ADD:GN_042); MIC in CAMBH media using NBS plates, by OD(600)
Another assay deals with Acinetobacter baumannii. The assay can be described thus: microbe, parasite or virus in culture. The conditions noted are these: ATCC 19606, 18 h, ASSAY_TEST Inhibition of Bacterial Growth, detection method Absorption (OD600), MEDIA CAMHB, plate type 384well, NBS, CORNING #3640.
A further assay has as its system Candida albicans. The assay can be described thus: microbe, parasite or virus in culture. The conditions noted are these: ATCC 90028, ASSAY_TEST Inhibition of Fungal Growth, detection method Absorption (OD530), plate type 384well, NBS, CORNING #3640.

The text below walks through data of ChEMBL document CHEMBL4513161, “CO-ADD screening of MMV (CH) - Pandemic Response Box” (2021).

In brackets after ≈: the same amount, converted by molar mass. Where only a bound is given, the exact number is not on record here.

A word on the CC50: it is the concentration giving 50% cytotoxicity.

Description for Acinetobacter baumannii: Antibacterial activity against Acinetobacter baumannii ATCC 19606 (CO-ADD:GN_034); MIC in CAMBH media using NBS plates, by OD600
Description for Candida albicans: Antifungal activity against Candida albicans ATCC 90028 (CO-ADD:FG_001); MIC in YNB media using NBS plates, by OD630
Description for Cryptococcus neoformans: Antifungal activity against Cryptococcus neoformans H99 ATCC 208821 (CO-ADD:FG_002); MIC in YNB media using NBS plates, by Resazurin OD(600-570)
Description for Escherichia coli: Antibacterial activity against Escherichia coli ATCC 25922 (CO-ADD:GN_001); MIC in CAMBH media using NBS plates, by OD(600)
Description for Klebsiella pneumoniae: Antibacterial activity against Klebsiella pneumoniae MDR ATCC 70063 (CO-ADD:GN_003); MIC in CAMBH media using NBS plates, by OD(600)
Description for Staphylococcus aureus: Antibacterial activity against Staphylococcus aureus MRSA ATCC 43300 (CO-ADD:GP_020); MIC in CAMBH media, using NBS plates, by OD(600)

For `Nc1nc(N)c2c(Sc3ccccc3)cccc2n1`, the CC50 in the assay with HEK293 came out at 10.8 µM. Moreover, the MIC against Pseudomonas aeruginosa [1], in the assay with Cryptococcus neoformans, in the assay with Staphylococcus aureus, against Escherichia coli, against Klebsiella pneumoniae and against Pseudomonas aeruginosa [2] was more than 20 µM throughout. The MIC in the assay with Acinetobacter baumannii and against Candida albicans was more than 20 µM throughout.

In the case of `Clc1cc2nc(C3CCNCC3)n(Cc3ccc(CNCCc4c[nH]cn4)cc3)c2cc1Cl`, in the assay with HEK293, the CC50 is more than 20 µM. Also, the MIC against Pseudomonas aeruginosa [1], with Cryptococcus neoformans, with Staphylococcus aureus, with Escherichia coli, with Klebsiella pneumoniae and in the assay with Pseudomonas aeruginosa [2] was more than 20 µM each time. Besides, the MIC against Acinetobacter baumannii and in the assay with Candida albicans was more than 20 µM throughout.

In the case of `Nc1cccc(-c2nc(N)nc(NC3Cc4ccccc4C3)n2)c1`, in the assay with HEK293, the CC50 was more than 20 µM. In addition, the MIC in the assay on Pseudomonas aeruginosa [1], against Cryptococcus neoformans, with Staphylococcus aureus, with Escherichia coli, with Klebsiella pneumoniae and in the assay on Pseudomonas aeruginosa [2] was more than 20 µM in each case. Besides, the MIC against Acinetobacter baumannii and in the assay on Candida albicans was more than 20 µM in each case.

With `C=C(C)n1c(=O)n(Cc2ccccc2C)c2ccccc21`, in the assay on HEK293, the CC50 is more than 20 µM. In addition, the MIC against Pseudomonas aeruginosa [1], against Cryptococcus neoformans, in the assay with Staphylococcus aureus, against Escherichia coli, in the assay on Klebsiella pneumoniae and with Pseudomonas aeruginosa [2] was more than 20 µM throughout. The MIC in the assay on Acinetobacter baumannii and with Candida albicans was more than 20 µM throughout.

Regarding `CC(C)(C)c1ccc(OCCn2nc(C(=O)O)c3ccccc3c2=O)cc1`, the CC50 in the assay with HEK293 is more than 20 µM. Also, the MIC against Pseudomonas aeruginosa [1], in the assay with Cryptococcus neoformans, against Staphylococcus aureus, against Escherichia coli, with Klebsiella pneumoniae and against Pseudomonas aeruginosa [2] was more than 20 µM throughout. For the same molecule, the MIC against Acinetobacter baumannii and against Candida albicans was more than 20 µM throughout.

Consider `Nc1nnc(-c2ccc(Cl)cc2)s1`, for which the CC50 with HEK293 is more than 20 µM. Further, the MIC against Pseudomonas aeruginosa [1], against Cryptococcus neoformans, with Staphylococcus aureus, in the assay on Escherichia coli, with Klebsiella pneumoniae and in the assay on Pseudomonas aeruginosa [2] was more than 20 µM each time. Moreover, the MIC in the assay with Acinetobacter baumannii and in the assay on Candida albicans was more than 20 µM throughout.

For the molecule `COc1ccc(SCC(=O)N2c3ccccc3Sc3ccccc32)cc1`, the CC50 with HEK293 is more than 20 µM. Besides, the MIC in the assay on Pseudomonas aeruginosa [1], with Cryptococcus neoformans, with Staphylococcus aureus, with Escherichia coli, in the assay on Klebsiella pneumoniae and against Pseudomonas aeruginosa [2] was more than 20 µM throughout. The MIC against Acinetobacter baumannii and in the assay with Candida albicans was more than 20 µM throughout.

As for `NS(=O)(=O)c1ccc(NC(=O)NC(c2ccccc2)c2ccccc2)cc1`, the CC50 in the assay on HEK293 was more than 20 µM. Further, the MIC against Pseudomonas aeruginosa [1], against Cryptococcus neoformans, against Staphylococcus aureus, in the assay with Escherichia coli, in the assay with Klebsiella pneumoniae and in the assay on Pseudomonas aeruginosa [2] was more than 20 µM each time. The MIC in the assay on Acinetobacter baumannii and against Candida albicans was more than 20 µM throughout.

For the molecule `CCCCOC(=O)Nc1cc2nc(C3CCCCC3)[nH]c2cc1N(CC)CC`, the CC50 with HEK293 was more than 20 µM. In addition, the MIC with Pseudomonas aeruginosa [1], against Cryptococcus neoformans, against Staphylococcus aureus, with Escherichia coli, in the assay on Klebsiella pneumoniae and with Pseudomonas aeruginosa [2] was more than 20 µM each time. Besides, the MIC in the assay with Acinetobacter baumannii and against Candida albicans was more than 20 µM each time.

On to `CCCCCCCCC(CP(=O)(O)C(C)N)C(=O)O` (centres undefined), for which the CC50 in the assay with HEK293 is more than 20 µM. Also, the MIC against Pseudomonas aeruginosa [1], with Cryptococcus neoformans, against Staphylococcus aureus, against Escherichia coli, against Klebsiella pneumoniae and against Pseudomonas aeruginosa [2] was more than 20 µM throughout. Further, the MIC in the assay on Acinetobacter baumannii and in the assay with Candida albicans was more than 20 µM each time.

As for `NC(=O)c1cnc2ccc(S(=O)(=O)c3ccccc3)cc2c1Nc1ccc(O)cc1`, the cytotoxic concentration (CC50) in the assay on HEK293 was more than 20 µM. The MIC in the assay on Pseudomonas aeruginosa [1], in the assay on Cryptococcus neoformans, in the assay on Staphylococcus aureus, against Escherichia coli, against Klebsiella pneumoniae and with Pseudomonas aeruginosa [2] was more than 20 µM in each case. The MIC in the assay with Acinetobacter baumannii and against Candida albicans was more than 20 µM in each case.

`C(=C\c1nc2ccccc2[nH]1)/c1ccc2c(c1)OCO2`: in the assay on HEK293, the CC50 was more than 20 µM. Besides, the MIC against Pseudomonas aeruginosa [1], in the assay with Cryptococcus neoformans, against Staphylococcus aureus, against Escherichia coli, in the assay on Klebsiella pneumoniae and against Pseudomonas aeruginosa [2] was more than 20 µM in each case. For the same molecule, the MIC with Acinetobacter baumannii and in the assay with Candida albicans was more than 20 µM each time.

For the molecule `O=S(=O)(Nc1cccc2cccnc12)c1ccccc1`, the CC50 with HEK293 worked out at 2.25 µM. Further, the MIC against Pseudomonas aeruginosa [1], in the assay on Cryptococcus neoformans, in the assay on Staphylococcus aureus, in the assay on Escherichia coli, in the assay with Klebsiella pneumoniae and against Pseudomonas aeruginosa [2] was more than 20 µM in each case. The MIC with Acinetobacter baumannii and in the assay on Candida albicans was more than 20 µM each time.

Take `CC(C)(C)OC(=O)NCc1ccc(C(=O)N[C@H]2CCOC2=O)cc1`: in the assay with HEK293, the CC50 was more than 20 µM. The MIC in the assay with Pseudomonas aeruginosa [1], with Cryptococcus neoformans, with Staphylococcus aureus, with Escherichia coli, in the assay on Klebsiella pneumoniae and in the assay with Pseudomonas aeruginosa [2] was more than 20 µM in each case. In addition, the MIC in the assay with Acinetobacter baumannii and against Candida albicans was more than 20 µM each time.

For the molecule `O=c1cc(OCc2ccccc2)ccn1Cc1ccccc1`, in the assay with HEK293, the CC50 was more than 20 µM. The MIC in the assay on Pseudomonas aeruginosa [1], against Cryptococcus neoformans, with Staphylococcus aureus, against Escherichia coli, against Klebsiella pneumoniae and against Pseudomonas aeruginosa [2] was more than 20 µM throughout. Further, the MIC against Acinetobacter baumannii and in the assay with Candida albicans was more than 20 µM throughout.

Turning to `CCCC(=O)OCCc1ccccc1`, in the assay with HEK293, the CC50 was more than 20 µM. The MIC against Pseudomonas aeruginosa [1], against Cryptococcus neoformans, in the assay on Staphylococcus aureus, in the assay on Escherichia coli, against Klebsiella pneumoniae and against Pseudomonas aeruginosa [2] was more than 20 µM throughout. Besides, the MIC against Acinetobacter baumannii and against Candida albicans was more than 20 µM in each case.

As to `CC(C)(C)c1cc(C(=O)/C(C#N)=N/Nc2cccc(Cl)c2)no1`, in the assay with HEK293, the CC50 is more than 20 µM. Further, the MIC in the assay with Pseudomonas aeruginosa [1], with Cryptococcus neoformans, in the assay on Staphylococcus aureus, against Escherichia coli, against Klebsiella pneumoniae and in the assay with Pseudomonas aeruginosa [2] was more than 20 µM each time. For the same molecule, the MIC against Acinetobacter baumannii and in the assay with Candida albicans was more than 20 µM throughout.

Take `O=[N+]([O-])c1ccc2c(CCc3c[nH]c4ccccc34)c[nH]c2c1`: the CC50 in the assay on HEK293 was more than 20 µM. Further, the MIC against Pseudomonas aeruginosa [1], with Cryptococcus neoformans, against Staphylococcus aureus, against Escherichia coli, in the assay with Klebsiella pneumoniae and against Pseudomonas aeruginosa [2] was more than 20 µM each time. Besides, the MIC against Acinetobacter baumannii and in the assay on Candida albicans was more than 20 µM each time.

Consider `COc1cc(Cc2cc(N)nc(N)n2)cc(OC)c1OC`, for which the CC50 in the assay on HEK293 is more than 20 µM. Also, the MIC against Pseudomonas aeruginosa [1] is 5 µM (≈ 1.45 µg/mL); against Cryptococcus neoformans, more than 20 µM; in the assay on Staphylococcus aureus, 5 µM (≈ 1.45 µg/mL); in the assay with Escherichia coli, 2.5 µM (≈ 0.726 µg/mL); in the assay with Klebsiella pneumoniae, 10 µM (≈ 2.9 µg/mL); in the assay on Pseudomonas aeruginosa [2], 20 µM (≈ 5.81 µg/mL). The MIC in the assay on Acinetobacter baumannii and against Candida albicans was more than 20 µM in each case.

Turning to `c1ccc(Cn2c(-c3ccccn3)nc3ccccc32)cc1`, the CC50 in the assay with HEK293 is more than 20 µM. The MIC in the assay with Pseudomonas aeruginosa [1], against Cryptococcus neoformans, in the assay on Staphylococcus aureus, against Escherichia coli, with Klebsiella pneumoniae and in the assay with Pseudomonas aeruginosa [2] was more than 20 µM throughout. For the same molecule, the MIC against Acinetobacter baumannii and in the assay on Candida albicans was more than 20 µM each time.

`O=C(Nc1ccc(Cl)c(C(F)(F)F)c1)C(CCCl)C(=O)Nc1ccc(Cl)c(C(F)(F)F)c1`: the CC50 in the assay on HEK293 was more than 20 µM. The MIC against Pseudomonas aeruginosa [1], against Cryptococcus neoformans, against Staphylococcus aureus, against Escherichia coli, in the assay on Klebsiella pneumoniae and with Pseudomonas aeruginosa [2] was more than 20 µM throughout. Also, the MIC against Acinetobacter baumannii and in the assay with Candida albicans was more than 20 µM each time.
